The source of these data is article PMC7002685, “Inhibition of vascular calcification by inositol phosphates derivatized with ethylene glycol oligomers” (Nature Communications, 2020).

Several values for one entry are separate records, joined by “and”; a condition that tells them apart may be missing. Equal values may be shown once. Read-outs that look alike come from different tables or passages of the source.

Details of series [1]: method as in PMID 30280390. To be noted: after a 4-h i.v. infusion, cited from earlier work.
Another series concerns the target T1, Opiate μ (OP3, MOP) (Homo sapiens, UniProt P35372).
T1 construct: purchased Eurofins Panlabs Discovery Services Taiwan, Ltd
In words: Off-target 260410. Type of series: binding. How it is done:
(§1) The potential off-target activity of 10 µM (OEG2)2-IP4 was assessed against a panel of 87 enzymes, receptors, or ion channels that are used in standard safety pharmacology screens.
(§2) 3.2. Off-target screening assay
(§3) The experiments were conducted by a contract research organization (Eurofins Panlabs Discovery Services Taiwan, Ltd.) and details on the respective assays can be retrieved via the catalog number provided in Supplementary Table 11 from the company’s webpage
(§4) (https://www.eurofinsdiscoveryservices.com/). […]
(§5) At sacrifice the left tibia of animals of the rat model with dietary adenine/high-phosphate-induced uremia and VC was collected, fixed with 70% v/v EtOH and embedded in methyl methacrylate. The trabecular bone compartment is known to be the most metabolic active i.e. actively re-structured bone compartment in CKD. Therefore, histomorphometric and micro-computed tomography (µCT) analysis of bone was performed on the trabecular compartment. Tibial sections were Goldner-stained for histomorphometric analysis of the proximal metaphysis using the AxioVision Release 4.5 software, as […]
(§6) described previously5. […]

A further series addresses T2, Calcium Channel N-Type (Rattus norvegicus, UniProt Q02294).
T2 construct: purchased Eurofins Panlabs Discovery Services Taiwan, Ltd
Description: Off-target 216000. It is filed as binding. How it is done: as §1, §2, §3, §4, §5, §6

Series [2] is described as follows: Protein binding in human plasma (ultrafiltration). Type of series: in vitro ADME. The method, then: For many drugs, the PK profile depends on the patient’s renal status. Therefore, (OEG2)2-IP4 PK profile was also determined in an adenine and high-phosphate-diet-induced rat model of uremia, in which the compound was administered after serum creatinine levels had increased by fourfold relative to baseline (Fig. 4g, h). […] Similar results were observed following s.c. administration (Supplementary Table 5).
as §2
The experiments were conducted by a contract research organization (Eurofins Panlabs Discovery Services Taiwan, Ltd.) and details on the respective assays can be retrieved via the catalog number provided in Supplementary Table 11 from the company’s webpage […]
Concentrations of unbound (OEG2)2-IP4 in ultrafiltrated fractions and total (OEG2)2-IP4 concentrations were measured using a calibration prepared in ultrafiltrated pooled plasma and non-ultrafiltrated pooled plasma, respectively and LC-MS/MS quantification as described in Methods 6.3.
At sacrifice the left tibia of animals of the rat model with dietary adenine/high-phosphate-induced uremia and VC was collected, fixed with 70% v/v EtOH and embedded in methyl methacrylate. […] The total bone area (as percentage of total tissue area), osteoid area (as percentage of total bone area), and mineralized bone area (as percentage of total tissue area) were calculated from the primary measurements. […]

Series [3] has as its target T3, Transporter, Serotonin (5-Hydroxytryptamine) (SERT) (Homo sapiens, UniProt P31645).
T3 construct: purchased Eurofins Panlabs Discovery Services Taiwan, Ltd
Description: Off-target 274030. Type of series: binding. How it is done:
as §1, §2
(§7) The experiments were conducted by a contract research organization (Eurofins Panlabs Discovery
(§8) Services Taiwan, Ltd.) and details on the respective assays can be retrieved via the catalog number
(§9) provided in Supplementary Table 11 from the company’s webpage
as §4

The test system of series [4] is Calcium Channel L-Type, Dihydropyridine. In words: Off-target 214600. It is filed as binding, Rat. To be noted: 10 µM. The method, then: as §1, §2, §7, §8, §9, §4
The nature of series [5]: Plasma calcium after s.c. administration in healthy rats. It is filed as in vivo, rat. As to conditions: individual rats. The method, then: One potential side effect of inositol phosphate-based drugs is toxicity due to chelation of ionized serum calcium. […] At 100 µM (OEG2)2-IP4, 96 ± 2% of control serum-ionized calcium was measured.
To study PK in healthy animals, male Sprague-Dawley rats (Harlan, Correzzana, Italy) were housed up to three per cage with free access to water and standard chow (pellets 12 mm, global diet 2018 certificate, Mucedola, Srl, Settimo Milanese, Italy), and submitted to a 12-h light/dark cycle. Animals were administered i.v. 10 mg/kg of (OEG2)2-IP4 in saline solution i.v. (30 s bolus, 5 mL/kg) and s.c. (5 mL/kg), respectively, in three animals per route and treatment. […] Plasma calcium concentration was determined in pre-dose samples and in t = 30 min samples of both acute and chronic treatments using the calcium colorimetric assay. Blood samples of 100 µL were drawn at several time points from the caudal vein, centrifuged at (3000 × g, 4 °C, 10 min) and stored at −80 °C until analysis by liquid chromatography–tandem mass spectrometry (LC-MS/MS).

In another series the test system is Sodium Channel, Site 2. Description: Off-target 279510. It is filed as binding, Rat. To be noted: 10 µM. How it is done: as §1, §2, §7, §8, §9, §4

T2 sequence (Q02294 whole entry): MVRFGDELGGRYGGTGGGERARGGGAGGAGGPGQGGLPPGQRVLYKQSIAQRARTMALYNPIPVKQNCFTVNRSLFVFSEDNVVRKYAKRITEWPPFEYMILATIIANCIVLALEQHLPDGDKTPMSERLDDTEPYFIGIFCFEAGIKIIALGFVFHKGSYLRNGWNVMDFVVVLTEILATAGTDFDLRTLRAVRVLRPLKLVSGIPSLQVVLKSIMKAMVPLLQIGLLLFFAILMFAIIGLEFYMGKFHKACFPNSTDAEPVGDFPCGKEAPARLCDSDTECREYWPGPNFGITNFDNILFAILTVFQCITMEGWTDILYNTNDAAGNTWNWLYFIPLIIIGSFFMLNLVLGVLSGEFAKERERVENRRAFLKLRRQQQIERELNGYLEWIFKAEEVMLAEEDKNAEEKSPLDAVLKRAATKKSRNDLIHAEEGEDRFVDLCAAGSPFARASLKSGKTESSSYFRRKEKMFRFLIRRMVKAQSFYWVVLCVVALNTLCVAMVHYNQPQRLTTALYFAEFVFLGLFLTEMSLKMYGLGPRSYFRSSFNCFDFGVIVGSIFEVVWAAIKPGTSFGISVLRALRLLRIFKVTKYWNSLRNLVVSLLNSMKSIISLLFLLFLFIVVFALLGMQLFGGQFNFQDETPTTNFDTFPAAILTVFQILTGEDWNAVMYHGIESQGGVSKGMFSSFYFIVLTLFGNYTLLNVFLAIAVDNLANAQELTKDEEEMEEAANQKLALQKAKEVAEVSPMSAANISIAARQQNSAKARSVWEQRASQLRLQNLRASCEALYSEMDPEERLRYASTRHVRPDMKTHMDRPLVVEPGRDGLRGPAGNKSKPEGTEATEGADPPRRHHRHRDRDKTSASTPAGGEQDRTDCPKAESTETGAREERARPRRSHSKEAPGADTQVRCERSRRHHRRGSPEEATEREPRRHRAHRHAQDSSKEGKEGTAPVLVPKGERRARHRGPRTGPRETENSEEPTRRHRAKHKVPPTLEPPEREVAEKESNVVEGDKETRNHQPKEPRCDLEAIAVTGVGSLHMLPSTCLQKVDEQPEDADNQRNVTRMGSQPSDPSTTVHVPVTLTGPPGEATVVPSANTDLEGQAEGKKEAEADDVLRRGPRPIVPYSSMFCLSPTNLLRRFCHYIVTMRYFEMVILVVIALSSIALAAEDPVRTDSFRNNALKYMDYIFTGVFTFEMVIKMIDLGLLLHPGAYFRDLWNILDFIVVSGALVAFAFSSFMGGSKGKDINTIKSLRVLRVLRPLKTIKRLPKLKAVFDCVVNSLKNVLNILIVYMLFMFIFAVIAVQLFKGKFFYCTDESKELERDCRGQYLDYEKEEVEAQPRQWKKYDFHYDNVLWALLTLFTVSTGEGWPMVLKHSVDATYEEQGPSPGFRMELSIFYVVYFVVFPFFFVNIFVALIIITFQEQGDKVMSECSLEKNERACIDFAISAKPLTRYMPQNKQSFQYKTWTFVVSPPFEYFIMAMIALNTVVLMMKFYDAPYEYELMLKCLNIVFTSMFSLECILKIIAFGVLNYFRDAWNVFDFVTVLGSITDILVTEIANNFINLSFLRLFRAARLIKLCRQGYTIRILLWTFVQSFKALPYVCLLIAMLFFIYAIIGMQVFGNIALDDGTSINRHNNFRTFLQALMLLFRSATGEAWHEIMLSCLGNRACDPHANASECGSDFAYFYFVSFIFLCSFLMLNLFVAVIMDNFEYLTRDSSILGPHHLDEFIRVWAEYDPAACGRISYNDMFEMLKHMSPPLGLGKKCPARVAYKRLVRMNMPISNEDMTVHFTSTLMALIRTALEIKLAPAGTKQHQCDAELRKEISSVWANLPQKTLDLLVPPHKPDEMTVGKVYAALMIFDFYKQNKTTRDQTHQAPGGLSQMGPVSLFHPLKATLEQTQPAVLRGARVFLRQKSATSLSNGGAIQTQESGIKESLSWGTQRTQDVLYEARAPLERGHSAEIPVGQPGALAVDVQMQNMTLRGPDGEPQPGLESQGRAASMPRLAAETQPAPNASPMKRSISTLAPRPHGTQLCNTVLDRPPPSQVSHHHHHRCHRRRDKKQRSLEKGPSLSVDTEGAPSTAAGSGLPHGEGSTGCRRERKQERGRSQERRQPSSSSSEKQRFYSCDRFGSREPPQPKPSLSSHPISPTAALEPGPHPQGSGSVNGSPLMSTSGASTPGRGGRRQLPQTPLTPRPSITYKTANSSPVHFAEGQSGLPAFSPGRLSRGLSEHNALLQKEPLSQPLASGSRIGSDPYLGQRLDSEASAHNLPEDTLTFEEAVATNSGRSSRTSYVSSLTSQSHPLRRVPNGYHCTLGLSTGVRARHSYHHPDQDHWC
T1 sequence (P35372 whole entry): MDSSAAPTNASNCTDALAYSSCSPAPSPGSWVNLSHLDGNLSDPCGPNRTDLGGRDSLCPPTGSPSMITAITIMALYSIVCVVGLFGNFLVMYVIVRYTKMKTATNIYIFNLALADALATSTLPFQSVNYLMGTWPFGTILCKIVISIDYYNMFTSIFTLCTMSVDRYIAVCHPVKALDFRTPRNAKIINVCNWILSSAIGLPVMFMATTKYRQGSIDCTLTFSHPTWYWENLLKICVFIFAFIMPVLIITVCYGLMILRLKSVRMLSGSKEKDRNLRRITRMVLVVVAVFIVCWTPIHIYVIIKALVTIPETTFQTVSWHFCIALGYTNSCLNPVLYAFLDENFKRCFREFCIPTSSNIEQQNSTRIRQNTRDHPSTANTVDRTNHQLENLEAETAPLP
T3 sequence (P31645 whole entry): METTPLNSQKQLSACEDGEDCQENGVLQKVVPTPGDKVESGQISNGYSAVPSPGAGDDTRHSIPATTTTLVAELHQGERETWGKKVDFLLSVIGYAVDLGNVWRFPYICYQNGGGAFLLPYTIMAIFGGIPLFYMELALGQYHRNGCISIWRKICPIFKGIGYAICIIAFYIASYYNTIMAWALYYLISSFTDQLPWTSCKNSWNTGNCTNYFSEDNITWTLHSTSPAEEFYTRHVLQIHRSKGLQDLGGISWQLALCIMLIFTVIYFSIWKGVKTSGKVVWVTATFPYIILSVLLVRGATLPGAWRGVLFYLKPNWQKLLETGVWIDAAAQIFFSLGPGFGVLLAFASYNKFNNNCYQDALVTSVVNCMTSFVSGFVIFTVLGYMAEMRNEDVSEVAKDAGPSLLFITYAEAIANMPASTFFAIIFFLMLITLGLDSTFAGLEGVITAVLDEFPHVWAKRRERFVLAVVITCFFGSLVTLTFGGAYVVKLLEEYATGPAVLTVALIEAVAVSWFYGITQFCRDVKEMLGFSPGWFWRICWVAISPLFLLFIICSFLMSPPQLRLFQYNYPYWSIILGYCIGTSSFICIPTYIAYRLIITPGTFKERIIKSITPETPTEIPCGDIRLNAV

As for `O=P(O)(O)O[C@H]1[C@H](OP(=O)(O)O)[C@@H](OP(=O)(O)O)[C@H](OP(=O)(O)O)[C@@H](OP(=O)(O)O)[C@H]1OP(=O)(O)O` [IP6, myo-Inositol hexakisphosphate], the entries for the “plasma half-life (t1/2)” value in series [1] (healthy volunteers) and in series [1] (hemodialyzed patients) were 54 min and 27 min, respectively.

Broadly, the inhibition is the percentage by which the read-out fell short of the control. The term % Inhibition denotes the change of the read-out against control, counted positive when it falls. Turning to `COCCOCCO[C@@H]1[C@@H](OP(=O)(O)O)[C@H](OCCOCCOC)[C@@H](OP(=O)(O)O)[C@@H](OP(=O)(O)O)[C@H]1OP(=O)(O)O` [(OEG2)2-IP4, 4,6-Di-O-(methoxy-diethyleneglycol)-myo-inositol-1,2,3,5-tetrakis(phosphate)], the inhibition at 10 µM at Opiate μ (OP3, MOP) was determined as 11%; on Calcium Channel N-Type, 5%; in series [3] it was 2%. Moreover, the figures for the “protein-bound fraction in healthy human plasma” value in series [2] (total measured concentration 2.8 µg/mL (4 µM)) and in series [2] (total measured concentration 27.5 µg/mL (39.5 µM)) were 58% and 42%, respectively. Further, the “% Inhibition” value in series [4] is reported as 1%; with Sodium Channel, Site 2 it was -1%. Besides, the “plasma calcium (Figure 4k)” value in series [5] (Acute, 30 min postdose) was 2.45 and 2.725 and 1.925 and 1.85; in series [5] (Acute, Predose) it was 2.8 and 2.45 and 2.3 and 1.975; in series [5] (Sub-chronic, 30 min postdose), 2.175 and 2.2 and 2.05 and 1.925; in series [5] (Sub-chronic, Predose), 2.275 and 2.3 and 2.55 and 1.925.
